Consider 45 compounds from patent EP0595557A1, “New substituted azetidinones as anti-inflammatory and antidegenerative agents” (MERCK & CO. INC., priority 1992, dated 1994).

The target in the assay is T1, Human Polymorphonuclear Leukocyte Elastase (Homo sapiens, UniProt P08246).
T1 construct: Crude extract of human polymorphonuclear leukocytes (PMN) containing elastase activity; from tissue; host or cells: human polymorphonuclear leukocytes (crude extract)
T1 sequence (P08246 30-267): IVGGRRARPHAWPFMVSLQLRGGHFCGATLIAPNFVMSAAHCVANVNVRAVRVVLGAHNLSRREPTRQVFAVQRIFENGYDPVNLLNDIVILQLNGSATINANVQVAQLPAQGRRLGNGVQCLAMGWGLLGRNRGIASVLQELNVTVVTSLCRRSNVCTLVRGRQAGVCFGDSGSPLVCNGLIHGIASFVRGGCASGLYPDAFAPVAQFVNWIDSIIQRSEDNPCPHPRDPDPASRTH
In words: Enzyme assay for inhibition of human polymorphonuclear leukocyte elastase via hydrolysis of Boc-AAPAN or Boc-AAPVN. The following applies: pH 7.5, second order rate constant for inactivation of the enzyme, expressed to the nearest thousand, read-out: Kobs/[I]. The format is biochemical. The method in brief:
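Crude human PMN extract as enzyme source, with 0.2 mM Boc-AAPAN in 0.05M TES buffer pH 7.5. Inhibitors in DMSO were added to substrate before the extract, and rate was followed as ΔOD/min at 410 mµ. Values are kobs/I, the second-order inactivation rate constant (per mole per second).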
`CCC[C@@H](NC(=O)N1C(=O)C(CC)(CC)[C@@H]1Oc1ccc(C(=O)NC(C)CCCN(CC)CC)cc1)c1ccc(C)cc1` (stereo partly drawn) [Compound 140]: the kinact/KI came out at 1.36e+06 M⁻¹ s⁻¹.

For `CCC[C@@H](NC(=O)N1C(=O)C(CC)(CC)[C@@H]1Oc1ccc(C(=O)Nc2ccc(N(C)C)cc2)cc1)c1ccc(C)cc1` [Compound 113], the kinact/KI was determined as 2.59e+06 M⁻¹ s⁻¹.

Turning to `CCC[C@@H](NC(=O)N1C(=O)C(CC)(CC)[C@@H]1Oc1ccc(C(=O)N(C)c2ccc(C(=O)O)cc2)cc1)c1ccc(C)cc1` [Compound 175], the kinact/KI amounted to 1.06e+06 M⁻¹ s⁻¹.

`CCC[C@@H](NC(=O)N1C(=O)C(CC)(CC)[C@@H]1Oc1ccc(CC(=O)NCCc2ccncc2)cc1)c1ccc(C)cc1` [Compound 46]: the kinact/KI was found to be 2.25e+06 M⁻¹ s⁻¹.

Regarding `CCC[C@@H](NC(=O)N1C(=O)C(CC)(CC)[C@@H]1Oc1ccc(C(N)=O)cc1)c1ccc(C)cc1` [Compound 197], the kinact/KI was determined as 1.64e+06 M⁻¹ s⁻¹.

With `CCC[C@@H](NC(=O)N1C(=O)C(CC)(CC)[C@@H]1Oc1ccc(C(=O)NCCc2cnc[nH]2)cc1)c1ccc(C)cc1` [Compound 89], the kinact/KI turned out to be 2.09e+06 M⁻¹ s⁻¹.

Take `CCC[C@@H](NC(=O)N1C(=O)C(CC)(CC)[C@@H]1Oc1ccc(C(=O)N(C)CCN(C(C)C)C(C)C)cc1)c1ccc(C)cc1` [Compound 86]: the kinact/KI amounted to 2.45e+06 M⁻¹ s⁻¹.

With `CCC[C@@H](NC(=O)N1C(=O)C(CC)(CC)[C@@H]1Oc1ccc(C(=O)N(C)CCN(C)C)cc1)c1cccc(OC)c1` [Compound 291], the kinact/KI was found to be 1.75e+06 M⁻¹ s⁻¹.

On to `CCC[C@@H](NC(=O)N1C(=O)C(CC)(CC)[C@@H]1Oc1ccc(C(=O)N(C)C2CCN(CC)CC2)cc1)c1ccc(C)cc1` [Compound 217], for which the kinact/KI was found to be 1.42e+06 M⁻¹ s⁻¹.

`CCC[C@@H](NC(=O)N1C(=O)C(CC)(CC)[C@@H]1Oc1ccc(C(=O)N(C)CCN(C(C)C)C(C)C)cc1)c1ccc(Cl)cc1` [Compound 301]: the kinact/KI worked out at 1.5e+06 M⁻¹ s⁻¹.

Regarding `CCC[C@@H](NC(=O)N1C(=O)C(CC)(CC)[C@@H]1Oc1ccc(C(=O)NCc2ccc(N(C)C)cc2)cc1)c1ccc(C)cc1` [Compound 110], the kinact/KI is 5.6e+06 M⁻¹ s⁻¹.

As for `CCC[C@@H](NC(=O)N1C(=O)C(CC)(CC)[C@@H]1Oc1ccc(C(=O)N2CCN(CCO)CC2)cc1)c1ccc2c(c1)OCO2` [Compound 265c, [S-(R*,5*)]-2-[4-[[(4-Hydroxyethyl)piperazin-1-yl]carbonyl]phenoxy]-((3,3-diethyl-N-[1-(3,4-methylenedioxyphenyl)butyl]-4-oxo-1-azetidinecarboxamide], the kinact/KI was 4.8e+06 M⁻¹ s⁻¹.

With `CCC[C@@H](NC(=O)N1C(=O)C(CC)(CC)[C@@H]1Oc1ccc(C(=O)Nc2cccc(Cl)c2)cc1)c1ccc(C)cc1` [Compound 135], the kinact/KI amounted to 201000 M⁻¹ s⁻¹.

As to `CCC[C@@H](NC(=O)N1C(=O)C(CC)(CC)[C@@H]1Oc1ccc(CC(=O)N(C)CCCN(C)Cc2ccccc2)cc1)c1ccc(C)cc1` [Compound 66], the kinact/KI is 1.36e+06 M⁻¹ s⁻¹.

For `CCC[C@@H](NC(=O)N1C(=O)C(CC)(CC)[C@@H]1Oc1ccc(C(=O)N(C)CCN(C)C)cc1)c1ccc(C)cc1` [Compound 75, [S-(R*,S*)]-2-[4-[[[2-(dimethylamino)ethyl]methylamino]carbonyl]phenoxy]-3,3-diethyl-N-[1-(4-methylphenyl]butyl]-4-oxo-1-azetidinecarboxamide], the kinact/KI was 1.92e+06 M⁻¹ s⁻¹.

Take `CCC[C@@H](NC(=O)N1C(=O)C(CC)(CC)[C@@H]1Oc1ccc(CC(=O)N(C)C)cc1)c1ccc(C)cc1` [Compound 67]: the kinact/KI was found to be 942000 M⁻¹ s⁻¹.

For `CCC[C@@H](NC(=O)N1C(=O)C(CC)(CC)[C@@H]1Oc1ccc(CC(=O)NCC(C)N(C)C)cc1)c1ccc(C)cc1` (stereo partly drawn) [Compound 57], the kinact/KI stood at 1.34e+06 M⁻¹ s⁻¹.

For the compound `CCC[C@@H](NC(=O)N1C(=O)C(CC)(CC)[C@@H]1Oc1ccc(C(=O)NC2CCCN(CC)C2)cc1)c1ccc(C)cc1` (stereo partly drawn) [Compound 162], the kinact/KI was determined as 949000 M⁻¹ s⁻¹.

As to `CCC[C@@H](NC(=O)N1C(=O)C(CC)(CC)[C@@H]1Oc1ccc(C(=O)N(C)CC[N+](C)([O-])Cc2ccccc2)cc1)c1ccc(C)cc1` (stereo partly drawn) [Compound 147], the kinact/KI stood at 2.49e+06 M⁻¹ s⁻¹.

In the case of `CCC[C@@H](NC(=O)N1C(=O)C(CC)(CC)[C@@H]1Oc1ccc(C(=O)N(C)C2CCN(Cc3ccccc3)CC2)cc1)c1ccc(C)cc1` [Compound 208], the kinact/KI turned out to be 1.95e+06 M⁻¹ s⁻¹.

For the compound `CCC[C@@H](NC(=O)N1C(=O)C(CC)(CC)[C@@H]1Oc1ccc(C(=O)NCCn2cncn2)cc1)c1ccc(C)cc1` [Compound 96], the kinact/KI was determined as 1.4e+06 M⁻¹ s⁻¹.

As for `CCC[C@@H](NC(=O)N1C(=O)C(CC)(CC)[C@@H]1Oc1ccc(CC(=O)OCCN(CC)CC)cc1)c1ccc(C)cc1` [Compound 34], the kinact/KI turned out to be 1.34e+06 M⁻¹ s⁻¹.

As for `CCC[C@@H](NC(=O)N1C(=O)C(CC)(CC)[C@@H]1Oc1ccc(CC(=O)OCC(C)(C)N(C)C)cc1)c1ccc(C)cc1` [Compound 37], the kinact/KI was 2.1e+06 M⁻¹ s⁻¹.

For the compound `CCCC(NC(=O)N1C(=O)C(CC)(CC)C1Oc1ccc(C(=O)NCCN(C)C)cc1)c1ccc(C)cc1` (stereo not drawn) [Compound 73, 2-[4-[[[2-(dimethylamino)ethyl]amino]carbonyl]phenoxy]-3,3-diethyl-N-[1-(4-methylphenyl)butyl]-4-oxo-1-azetidinecarboxamide], the kinact/KI was 968000 M⁻¹ s⁻¹.

For `CCC[C@@H](NC(=O)N1C(=O)C(CC)(CC)[C@@H]1Oc1ccc(C(=O)NCC(=O)O)cc1)c1ccc(C)cc1` [Compound 74], the kinact/KI came to 1.43e+06 M⁻¹ s⁻¹.

Turning to `CCC[C@@H](NC(=O)N1C(=O)C(CC)(CC)[C@@H]1Oc1ccc(CC(=O)OCCCN(C)C)cc1)c1ccc(C)cc1` [Compound 33], the kinact/KI worked out at 1.15e+06 M⁻¹ s⁻¹.

Consider `CCC[C@@H](NC(=O)N1C(=O)C(CC)(CC)[C@@H]1Oc1ccc(C(=O)N(C)CCN(C)Cc2ccncc2)cc1)c1ccc(C)cc1` [Compound 148], for which the kinact/KI worked out at 2.39e+06 M⁻¹ s⁻¹.

`CCC[C@@H](NC(=O)N1C(=O)C(CC)(CC)[C@@H]1Oc1ccc(C(=O)N(C)CC(=O)O)cc1)c1ccc(C)cc1` [Compound 213]: the kinact/KI is 984000 M⁻¹ s⁻¹.

On to `CCC[C@@H](NC(=O)N1C(=O)C(CC)(CC)[C@@H]1Oc1ccc(C(=O)NCCN2CCN(C(=O)OCc3ccccc3)CC2)cc1)c1ccc(C)cc1` [Compound 117], for which the kinact/KI was 6.23e+06 M⁻¹ s⁻¹.

Take `CCC[C@@H](NC(=O)N1C(=O)C(CC)(CC)[C@@H]1Oc1ccc(C(=O)N[C@@H](CCCCN)C(=O)O)cc1)c1ccc(C)cc1` [Compound 184]: the kinact/KI was determined as 755000 M⁻¹ s⁻¹.

With `CCC[C@@H](NC(=O)N1C(=O)C(CC)(CC)[C@@H]1Oc1ccc(C(=O)N(C)C2CCN(C)CC2)cc1)c1ccc(C)cc1` [Compound 215], the kinact/KI was found to be 1.28e+06 M⁻¹ s⁻¹.

Regarding `CCC[C@@H](NC(=O)N1C(=O)C(CC)(CC)[C@@H]1Oc1ccc(CC(=O)OC(C)CN(C)C)cc1)c1ccc(C)cc1` (stereo partly drawn) [Compound 36], the kinact/KI stood at 1.69e+06 M⁻¹ s⁻¹.

Consider `CCC[C@@H](NC(=O)N1C(=O)C(CC)(CC)[C@@H]1Oc1cc(C)c(C(=O)OCCN(CC)CC)c(C)c1)c1ccc(C)cc1` [Compound 305, 2-(diethylamino)ethyl [S-(R*,S*)]-4-[[3,3-diethyl-1-[[[1-(4-methylphenyl)butyl]amino]carbonyl]-4-oxo-2-azetidinyl]oxy]-2,6-dimethyl-benzoate], for which the kinact/KI stood at 749000 M⁻¹ s⁻¹.

Regarding `CCC[C@@H](NC(=O)N1C(=O)C(CC)(CC)[C@@H]1Oc1ccc(C(=O)N(C)CCN(C)C)cc1)c1ccc(CO)cc1` [Compound 288], the kinact/KI is 854000 M⁻¹ s⁻¹.

Turning to `CCC[C@@H](NC(=O)N1C(=O)C(CC)(CC)[C@@H]1Oc1ccc(C(=O)N2CCN(CCO)CC2)cc1)c1ccc(C)cc1` [Compound 256a, [S-(R*,S*)]-2-[4-[[(4-Hydroxyethyl)piperazin-1-yl]carbonyl]phenoxy]-((3,3-diethyl-N-[1-(methylphenyl)butyl]-4-oxo-1-azetidinecarboxamide], the kinact/KI was 2e+06 M⁻¹ s⁻¹.

As to `CCC[C@@H](NC(=O)N1C(=O)C(CC)(CC)[C@@H]1Oc1ccc(C(=O)N(C)CCN(C)Cc2cccc3ccccc23)cc1)c1ccc(C)cc1` [Compound 158], the kinact/KI was 1.08e+06 M⁻¹ s⁻¹.

Take `CCC[C@@H](NC(=O)N1C(=O)C(CC)(CC)[C@@H]1Oc1ccc(C(=O)NCCn2cnnn2)cc1)c1ccc(C)cc1` [Compound 101]: the kinact/KI amounted to 2.05e+06 M⁻¹ s⁻¹.

`CCCCN(C)C(=O)c1ccc(O[C@@H]2N(C(=O)N[C@H](CCC)c3ccc4c(c3)OCO4)C(=O)C2(CC)CC)cc1` [Compound 262]: the kinact/KI came to 3.12e+06 M⁻¹ s⁻¹.

As for `CCC[C@@H](NC(=O)N1C(=O)C(CC)(CC)[C@@H]1Oc1ccc(CC(=O)N(C)CCCC(=O)NS(=O)(=O)c2ccccc2)cc1)c1ccc(C)cc1` [Compound 65], the kinact/KI was determined as 1.34e+06 M⁻¹ s⁻¹.

With `CCC[C@@H](NC(=O)N1C(=O)C(CC)(CC)[C@@H]1Oc1ccc(C(=O)NCCN(CC)CC)cc1)c1ccc(C)cc1` [Compound 77], the kinact/KI worked out at 1.19e+06 M⁻¹ s⁻¹.

Take `CCC[C@@H](NC(=O)N1C(=O)C(CC)(CC)[C@@H]1Oc1ccc(C(=O)OCCN2CCN(C(C)=O)CC2)cc1)c1ccc(C)cc1` [Compound 27]: the kinact/KI amounted to 3.26e+06 M⁻¹ s⁻¹.

Turning to `CCC[C@@H](NC(=O)N1C(=O)C(CC)(CC)[C@@H]1Oc1ccc(C(=O)N(C)CCOC(=O)N(C)C)cc1)c1ccc(C)cc1` [Compound 170], the kinact/KI is 1.52e+06 M⁻¹ s⁻¹.

Take `CCC[C@@H](NC(=O)N1C(=O)C(CC)(CC)[C@@H]1Oc1ccc(CC(=O)OC)cc1)c1ccc(C(=O)N2CCOCC2)cc1` [Compound 276]: the kinact/KI came out at 440000 M⁻¹ s⁻¹.

Turning to `CCC[C@@H](NC(=O)N1C(=O)C(CC)(CC)[C@@H]1Oc1ccc(C(=O)N(CC)CC)cc1)c1ccc2c(c1)OCO2` [Compound 261], the kinact/KI was determined as 3.21e+06 M⁻¹ s⁻¹.

Turning to `CCC[C@@H](NC(=O)N1C(=O)C(CC)(CC)[C@@H]1Oc1ccc(CC(=O)N(C)CCN(C)C)cc1)c1ccc(C(=O)N2CCOCC2)cc1` [Compound 275], the kinact/KI stood at 290000 M⁻¹ s⁻¹.
